Measurements published in ChEMBL document CHEMBL4665912, “Novel Compounds as STING Modulators for Treating Hepatitis B Virus Infections” (ACS Med Chem Lett, 2020).

Tests used:
[1] = target: T1, Stimulator of interferon genes protein (Homo sapiens, UniProt Q86WV6); test: Agonist activity at STING in human PBMC cells assessed as increase in […] by electrochemiluminescence assay; assay type: cell-based
[2] = target: T1, Stimulator of interferon genes protein; test: Competitive binding affinity to human recombinant C-terminal Avi-tag STING using Alexa 488 probe incubated for 15 mins by FRET based assay

T1 sequence (Q86WV6 whole entry): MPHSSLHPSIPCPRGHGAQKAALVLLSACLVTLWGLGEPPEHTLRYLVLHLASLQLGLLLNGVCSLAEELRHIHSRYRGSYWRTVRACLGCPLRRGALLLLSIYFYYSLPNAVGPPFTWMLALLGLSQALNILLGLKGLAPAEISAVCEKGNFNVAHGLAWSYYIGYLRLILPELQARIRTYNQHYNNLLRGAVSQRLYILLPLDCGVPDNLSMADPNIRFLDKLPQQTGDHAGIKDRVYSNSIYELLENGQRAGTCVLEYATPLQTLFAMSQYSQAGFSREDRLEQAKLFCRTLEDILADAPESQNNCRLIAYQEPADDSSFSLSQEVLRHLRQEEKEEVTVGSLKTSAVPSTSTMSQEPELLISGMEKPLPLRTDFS

| EC50 [1] [nM] | IC50 [2] [nM] | SMILES |
| --- | --- | --- |
| < 1 | < 1 | CCn1nc(C)cc1C(=O)/N=c1\n(C)c2ccccc2n1C/C=C/Cn1/c(=N/C(=O)c2cc(C)nn2CC)n(C)c2cccc(CN3CCCCC3)c21 |
| < 1 | < 1 | CCn1nc(C)cc1C(=O)/N=c1\n(C)c2ccccc2n1C/C=C/Cn1/c(=N/C(=O)c2cc(C)nn2CC)n(C)c2c(CO)cccc21 |
| < 1 | < 1 | CCn1nc(C)cc1C(=O)/N=c1\n(C)c2cccc(OC)c2n1C/C=C/Cn1/c(=N/C(=O)c2cc(C)nn2CC)n(C)c2cccc(OCCCO)c21 |
| 1 | < 1 | CCn1nc(C)cc1C(=O)/N=c1\n(C)c2ccccc2n1C/C=C/Cn1/c(=N/C(=O)c2cc(C)nn2CC)n(C)c2cccc(C(O)CO)c21 (configuration not stated) |
| < 1 | < 1 | CCn1nc(C)cc1C(=O)/N=c1\n(C)c2ccccc2n1C/C=C/Cn1/c(=N/C(=O)c2cc(C)nn2CC)n(C)c2cccc(CN3CCOCC3)c21 |
| < 1 | < 1 | CCn1nc(C)cc1C(=O)/N=c1\n(C)c2ccccc2n1C/C=C/Cn1/c(=N/C(=O)c2cc(C)nn2CC)n(C)c2cccc(CN3CCCCCC3)c21 |
